Results: the OligoGym collection
Values joined by “and” are separate entries in the source; they are usually repeats but may differ in a detail not shown here. Equal entries are not always repeated. After the bases stand the sugars from the 5' end (letter, count) and the backbone: PS all phosphorothioate, else s phosphorothioate and o phosphodiester by linkage. Methylation of C is not given here. e = 2'-O-(2-methoxyethyl) (MOE); k = constrained ethyl (cEt); d = 2'-deoxy (DNA); m = 2'-O-methyl

Biological target: HSD17B13
Settings: ASO, HepaRG

| Sequence | target mRNA inhibition (1 µM) | also measured |
| --- | --- | --- |
| ATGTTTATGTAAGCAC (sugars kkdddddddddkekek, PS) | 61% | – |
| ATTAAGACAGTTGAGT (sugars k3 d10 k3, PS) | 34% | – |
| ATTAAGATGTCCAGGC (sugars k3 d10 k3, PS) | 31% | – |
| ATTAAGCTTAGTATAT (sugars k3 d10 k3, PS) | 10% | – |
| ATTACTTCTGATGTCC (sugars k3 d10 k3, PS) | 65% | – |
| ATTAGATGGTAAGGAG (sugars k3 d10 k3, PS) | 4% | – |
| ATTATTCACCACGATT (sugars k3 d10 k3, PS) | 29% | – |
| ATTCACATATGTGAAG (sugars k3 d10 k3, PS) | 0% | – |
| ATTCTAAACTAGTGGT (sugars k3 d10 k3, PS) | 39% | – |
| ATTCTGTGTTCTTGTT (sugars k3 d10 k3, PS) | 67% | – |
| ATTCUGTGGCATGGCT (sugars k3 d1 m1 d8 k3, PS) | 59% | – |
| ATTGAGATGACAGTGG (sugars k3 d10 k3, PS) | 70% | target mRNA inhibition (0.02 µM): 21%; target mRNA inhibition (0.078 µM): 40%; target mRNA inhibition (0.313 µM): 64%; target mRNA inhibition (1.25 µM): 77%; target mRNA inhibition (5 µM): 91% |
| ATTGCATAAGAGCCAA (sugars k3 d10 k3, PS) | 67% | – |
| ATTGTCTAAACATCTC (sugars kkdddddddddkekek, PS) | 62% | – |
| ATTGUCTAAACATCTC (sugars k3 d1 m1 d8 k3, PS) | 73% | – |
| ATTTAGCATTGCCTGT (sugars k3 d10 k3, PS) | 10% | – |
| CAAAAGACTTTGAGAC (sugars k3 d10 k3, PS) | 22% | – |
| CAAAAGACTTTGAGAC (sugars kkdddddddddkekek, PS) | 32% | – |
| CAAAATGGTGGCGAGG (sugars k3 d10 k3, PS) | 10% | – |
| CAAAGATCTGGCCAGT (sugars k3 d10 k3, PS) | 1% | – |
| CAAATTTGCTGGAACT (sugars k3 d10 k3, PS) | 39% | – |
| CAACCAAACTTCCAGC (sugars k3 d10 k3, PS) | 72% | – |
| CAAGACAGACTGTTGA (sugars k3 d10 k3, PS) | 39% | – |
| CAAGAGGATAGTCCAT (sugars k3 d10 k3, PS) | 58% | – |
| CAAGATTAGTCTTGAT (sugars k3 d10 k3, PS) | 27% | – |
| CAAGGAGTACTTCACA (sugars k3 d10 k3, PS) | 66% | – |
| CAAGGAGTATGACAAC (sugars k3 d10 k3, PS) | 6% | – |
| CAAGTGACAGCATTGA (sugars k3 d10 k3, PS) | 48% | – |

| Sequence | target mRNA inhibition (1 µM) | also measured |
| --- | --- | --- |
| CAAGTTTGTTCATAGT (sugars k3 d10 k3, PS) | 78% | – |
| CAATCTAGCAACCTCT (sugars k3 d10 k3, PS) | 51% | – |
| CAATGGTTGATAGTTT (sugars k3 d10 k3, PS) | 47% | – |
| CAATTATATGAGGTCT (sugars k3 d10 k3, PS) | 36% | – |
| CAATTGCTCTATAGAT (sugars k3 d10 k3, PS) | 15% | – |
| CACAAGTAAGGTAAAG (sugars k3 d1 m1 d8 k3, PS) | 43% | – |
| CACAATCTAGCAACCT (sugars k3 d10 k3, PS) | 40% | – |
| CACACCGCGCTTATTA (sugars k3 d10 k3, PS) | 11% | – |
| CACATATGTGAAGAGC (sugars kkdddddddddkekek, PS) | 53% | – |
| CACCAACGACTCCAAG (sugars k3 d10 k3, PS) | 16% | – |
| CACCTGATTTAGAGAG (sugars k3 d10 k3, PS) | 11% | – |
| CACCTTATTAATATCC (sugars k3 d10 k3, PS) | 34% | – |
| CACGAAGCCTGAATGC (sugars k3 d10 k3, PS) | 24% | – |
| CACTATCAGAACAGTT (sugars k3 d10 k3, PS) | 24% | – |
| CACTTTCACTGGGTGT (sugars k3 d10 k3, PS) | 7% | – |
| CAGAAAGTTCATTCGA (sugars k3 d10 k3, PS) | 67% | – |
| CAGAAGGATTTCTAGG (sugars k3 d10 k3, PS) | 43% | – |
| CAGACCTATGAAAAAC (sugars k3 d10 k3, PS) | 26% | – |
| CAGAGACATGAGGTTT (sugars kkdddddddddkekek, PS) | 61% | – |
| CAGATTGGAATGCTAC (sugars kkdddddddddkekek, PS) | 57% | – |
| CAGCATCAAGACATTC (sugars k3 d1 m1 d8 k3, PS) | 52% | – |
| CAGCATTGATTCGAAA (sugars kkdddddddddkekek, PS) | 58% | – |
| CAGGAATGCATAAGAG (sugars k3 d10 k3, PS) | 33% | – |
| CAGGUTGAGATAAAGC (sugars k3 d1 m1 d8 k3, PS) | 55% | – |
| CAGTACAGTTCCTTTT (sugars k3 d10 k3, PS) | 43% | – |
| CAGTAGGCAGTTTCTC (sugars k3 d10 k3, PS) | 72% and 50% | target mRNA inhibition (0.02 µM): 0%; target mRNA inhibition (0.078 µM): 0%; target mRNA inhibition (0.313 µM): 30%; target mRNA inhibition (1.25 µM): 55%; target mRNA inhibition (5 µM): 86% |
| CAGTCTTAAACCTTCC (sugars k3 d10 k3, PS) | 70% | – |
